Test results from paper PMC5557901, “Cell surface binding, uptaking and anticancer activity of L-K6, a lysine/leucine-rich peptide, on human breast cancer MCF-7 cells” (Scientific Reports, 2017).
Like-named read-outs stand apart in the source and are kept apart here. Peptide text beside a SMILES is read from it.

Columns and labels:
Format in all cases: cell-based, human
[1] = system: various cancer cell lines; assay: MTT cytotoxicity assay, various cancer cell lines; conditions: Fig. 1a
Description: Eleven human cancer cell lines (including MCF-7 breast carcinoma, Bcap-37 breast carcinoma, MDA-MB-231 breast adenocarcinoma, HeLa cervical carcinoma, BGC-823 gastric carcinoma, A375 melanoma, NCI-H446 small cell lung carcinoma, HO-8910 ovarian carcinoma, SMMC-7721 hepatocellular carcinoma, LK-2 lung squamous cells carcinoma, and BEL-7402 hepatocellular carcinoma) were obtained from the CBCAS (Cell Bank of the Chinese Academy of Sciences, Shanghai, China). Human HaCaT keratinocytes were obtained from KeyGEN Biotech (Nanjing, China). Cells were routinely cultured in RPMI 1640 or L15 or DMEM containing 10% neonatal bovine serum (NBS) or fetal bovine serum (FBS), 1% l-glutamine, 1% sodium pyruvate, 50 U/mL penicillin and 50 μg/mL streptomycin. The cells were maintained at 37 °C in a humidified atmosphere of 5% CO2.
Cell viability was detected by MTT assay. The cells were seeded at 5 × 10^3 cells/well in 96-well plates 24 h before the peptide treatment. After 1, 6, 24, or 48 h of incubation with various concentrations of peptides (20–100 µM), 10 μL of the 5 mg/mL MTT solution was added to each well and incubated for additional 4 h. The purple-blue MTT formazan precipitate was dissolved in 150 μL of DMSO. The absorbance was determined using a microplate reader at 490 nm. […] The data were expressed as a percentage of the inhibition rate for the viable cells. […]

[2] = system: HaCaT cells; assay: MTT cytotoxicity assay, non-cancerous HaCaT cells; conditions: 1-hour peptide exposure
Experimental: (§1) Cell viability was detected by MTT assay. The cells were seeded at 5 × 10^3 cells/well in 96-well plates 24 h before the peptide treatment. After 1, 6, 24, or 48 h of incubation with various concentrations of peptides (20–100 µM), 10 μL of the 5 mg/mL MTT solution was added to each well and incubated for additional 4 h. The purple-blue MTT formazan precipitate was dissolved in 150 μL of DMSO. The absorbance was determined using a microplate reader at 490 nm. The experiments were performed in triplicate. The data were expressed as a percentage of the inhibition rate for the viable cells. For the thermo-sensitivity test, MCF-7 cells were treated with L-K6 at 4 °C or 37 °C for 30 min and then subjected to the MTT assay. For energy-dependent assay, the L-K6-treated MCF-7 cells were pre-incubated with 40 μM NaN3 for 30 min[39] and then subjected to the MTT assay. All experiments had been performed in triplicate.

[3] = system: MCF-7 cells
Experimental: as §1

[4] = system: MCF-7 cells; assay: Cellular uptake by confocal microscopy, MCF-7 cells; conditions: FITC-labeled L-K6, confocal microscopy, after 5 min of peptide exposure
Experimental: (§2) MCF-7 or HaCaT cells were incubated with various concentrations of FITC-labeled L-K6 for 5, 10 or 60 min. Myelin and other lipophilic areas on cell membrane were stained with the red-orange fluorescent tracker DiI. The FITC-labeled peptides were traced and recorded at each time point using confocal microscopy.

[5] = system: HaCaT cells; assay: Cellular uptake by confocal microscopy, HaCaT cells; conditions: FITC-labeled L-K6, confocal microscopy, 1-hour exposure
Experimental: as §2

IC50 ([3]; 1 h) [µM] | IC50 ([3]; 6 h) [µM] | IC50 ([3]; 24 h) [µM] | IC50 ([3]; 48 h) [µM] | Cellular uptake into MCF-7 cells [4] | Cellular uptake into HaCaT cells [5] | Structure (SMILES) | Cytotoxicity on cancer cell lines relative to L-K6 (MTT) [1] | Toxicity against normal HaCaT cells (MTT) [2]
– | – | – | – | – | – | CC[C@H](C)[C@H](N)C(=O)N[C@@H](CCCCN)C(=O)N[C@@H](CCCCN)C(=O)N[C@H](C(=O)N[C@H](C(=O)N[C@@H](CO)C(=O)N[C@@H](CCCCN)C(=O)N[C@H](C(=O)N[C@@H](CCCCN)C(=O)N[C@@H](CCCCN)C(=O)N[C@@H](CC(C)C)C(=O)N[C@@H](CC(C)C)C(N)=O)[C@@H](C)CC)C(C)C)[C@@H](C)CC [L-K5 V1] (H-IKKIVSKIKKLL-NH2) | dramatically weakened this cytotoxicity | –
38 | 34 | 31 | 23 | rapidly internalize into cells | negligible cellular uptake | CC[C@H](C)[C@H](N)C(=O)N[C@@H](CCCCN)C(=O)N[C@@H](CCCCN)C(=O)N[C@H](C(=O)N[C@@H](CC(C)C)C(=O)N[C@@H](CO)C(=O)N[C@@H](CCCCN)C(=O)N[C@H](C(=O)N[C@@H](CCCCN)C(=O)N[C@@H](CCCCN)C(=O)N[C@@H](CC(C)C)C(=O)N[C@@H](CC(C)C)C(=O)N[C@@H](CCCCN)C(N)=O)[C@@H](C)CC)[C@@H](C)CC [L-K6] (H-IKKILSKIKKLLK-NH2) | – | minimum toxicity
– | – | – | – | – | – | CC[C@H](C)[C@H](N)C(=O)N[C@@H](CCCCN)C(=O)N[C@@H](CCCCN)C(=O)N[C@H](C(=O)N[C@H](C(=O)N[C@@H](CO)C(=O)N[C@@H](CCCCN)C(=O)N[C@H](C(=O)N[C@@H](CCCCN)C(=O)N[C@@H](CCCCN)C(=O)N[C@@H](CC(C)C)C(=O)N[C@@H](CC(C)C)C(=O)N[C@@H](CCCCN)C(N)=O)[C@@H](C)CC)C(C)C)[C@@H](C)CC [L-K6 V1] (H-IKKIVSKIKKLLK-NH2) | dramatically weakened this cytotoxicity | –
